Source: patent US20230024302A1, “2,3,5-TRISUBSTITUTED PYRAZOLO[1,5-A]PYRIMIDINE COMPOUNDS” (Arcus Biosciences, Inc., priority 2019, published 2023)
pIC50: −log10 of the molar value.

Columns and labels:
PI3Kγ (p120γ) = target: T1, PI3Kγ (p120γ) (Homo sapiens, UniProt P48736); assay: Inhibition of PI3K kinase activity (ADP Glo), PI3Kγ; settings: Table 2, p120γ, read-out: biochemical potency (PI3Kγ IC50)
T1 construct: purchased Promega V1761
In short: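 Recombinant p120γ (8 nM, 2× stock) was preincubated with compound for 1 h at rt in HEPES pH 7.4, NaCl, MgCl2 and 0.05% BSA. Reaction was started with PIP2 (0.1 mg/ml, 2×) and ATP (50 μM, 2×) and ran 60 min at rt. ADP formed was read by ADP-Glo luminescence, and IC50 came from a 4-parameter fit.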

PI3Kγ = target: T2, PI3Kγ (Homo sapiens, UniProt P48736); assay: PI3Kγ cellular assay in THP-1 cells (AKT pS473 AlphaLISA); type: cell-based; settings: Table 2, rhMCP-1 stimulated AKT pS473, read-out: cellular potency (PI3Kγ IC50)
T2 construct: host or cells: THP-1
T2 sequence (P48736 whole entry): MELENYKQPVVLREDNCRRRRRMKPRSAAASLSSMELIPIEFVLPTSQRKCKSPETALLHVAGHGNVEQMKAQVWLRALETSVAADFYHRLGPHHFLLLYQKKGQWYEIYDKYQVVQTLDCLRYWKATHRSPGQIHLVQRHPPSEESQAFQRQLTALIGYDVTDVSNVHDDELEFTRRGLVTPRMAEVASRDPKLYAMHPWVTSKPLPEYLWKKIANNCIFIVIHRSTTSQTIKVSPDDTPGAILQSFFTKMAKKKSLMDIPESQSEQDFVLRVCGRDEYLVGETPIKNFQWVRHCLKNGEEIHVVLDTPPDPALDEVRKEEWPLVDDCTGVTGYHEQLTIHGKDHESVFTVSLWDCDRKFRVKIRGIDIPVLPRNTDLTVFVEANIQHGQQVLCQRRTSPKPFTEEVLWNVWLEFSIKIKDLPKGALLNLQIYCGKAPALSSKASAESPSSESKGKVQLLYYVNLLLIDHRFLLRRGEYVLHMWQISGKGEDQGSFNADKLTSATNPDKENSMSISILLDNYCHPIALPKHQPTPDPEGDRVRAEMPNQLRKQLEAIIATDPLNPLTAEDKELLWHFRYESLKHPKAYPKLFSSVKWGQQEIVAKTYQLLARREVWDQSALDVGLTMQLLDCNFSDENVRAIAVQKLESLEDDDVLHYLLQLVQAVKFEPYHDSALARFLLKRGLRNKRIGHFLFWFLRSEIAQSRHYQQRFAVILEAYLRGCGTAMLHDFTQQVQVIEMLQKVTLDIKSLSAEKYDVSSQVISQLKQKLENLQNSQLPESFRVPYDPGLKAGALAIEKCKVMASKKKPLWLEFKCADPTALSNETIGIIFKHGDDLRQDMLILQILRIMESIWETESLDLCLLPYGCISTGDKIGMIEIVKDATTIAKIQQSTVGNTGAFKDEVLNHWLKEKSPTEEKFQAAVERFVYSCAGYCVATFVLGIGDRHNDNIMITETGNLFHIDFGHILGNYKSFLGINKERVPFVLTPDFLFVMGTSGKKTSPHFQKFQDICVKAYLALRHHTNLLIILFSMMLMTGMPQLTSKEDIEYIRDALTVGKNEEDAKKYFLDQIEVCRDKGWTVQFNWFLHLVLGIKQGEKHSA
In short: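 Serum-starved THP-1 cells (1.8×10^5/well, serum-free DMEM) treated with compounds from 4 nM to 30 μM in 2% DMSO, then stimulated and lysed.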

T1 sequence (P48736 whole entry): as above

Row | SMILES | pIC50 (PI3Kγ (p120γ)) | pIC50 (PI3Kγ)
1 | Cc1cc(-c2ccn3nc(N)c(C(=O)N[C@H]4CCC[C@H](O)C4)c3n2)cc2c1C(=O)N([C@@H](C)C1CC1)C2 [Example 244] | > 7.00 | 6.00 to 7.00
2 | Cc1cc(-c2ccn3nc(N)c(C(=O)N[C@@H](C(N)=O)c4ccccc4)c3n2)cc2c1C(=O)N([C@@H](C)C1CC1)C2 [Example 245] | > 7.00 | 6.00 to 7.00
3 | Cc1cc(-c2ccn3nc(N)c(C(=O)NC4(CO)CC4)c3n2)cc2c1C(=O)N([C@@H](C)C1CC1)C2 [Example 246] | > 7.00 | 6.00 to 7.00
4 | Cc1cc(-c2ccn3nc(N)c(C(=O)NC4(C(N)=O)CC4)c3n2)cc2c1C(=O)N([C@@H](C)C1CC1)C2 [Example 247] | > 7.00 | 6.00 to 7.00
5 | Cc1cc(-c2ccn3nc(N)c(C(=O)NC(C)(C)c4ccncc4)c3n2)cc2c1C(=O)N([C@@H](C)C1CC1)C2 [Example 248] | > 7.00 | 6.00 to 7.00
6 | Cc1cc(-c2ccn3nc(N)c(C(=O)NC4CC4(C)C)c3n2)cc2c1C(=O)N([C@@H](C)C1CC1)C2 (stereo partly shown) [Example 249] | > 7.00 | 6.00 to 7.00
7 | Cc1cc(-c2ccn3nc(N)c(C(=O)NCC4(CO)CC4)c3n2)cc2c1C(=O)N([C@@H](C)C1CC1)C2 [Example 250] | > 7.00 | 6.00 to 7.00
8 | Cc1cc(-c2ccn3nc(N)c(C(=O)N4CC(O)C4)c3n2)cc2c1C(=O)N(C(C)C1CC1)C2 (stereo not shown) [Example 251] | > 7.00 | 6.00 to 7.00
9 | Cc1cc(-c2ccn3nc(N)c(C(=O)NC(C)C)c3n2)cc2c1C(=O)N([C@@H](C)C1CC1)C2 [Example 252] | > 7.00 | 6.00 to 7.00
10 | Cc1cc(-c2ccn3nc(N)c(C(=O)NC4(C(C)O)CC4)c3n2)cc2c1C(=O)N([C@@H](C)C1CC1)C2 (stereo partly shown) [Example 253] | > 7.00 | 6.00 to 7.00
11 | Cc1cc(-c2ccn3nc(N)c(C(=O)N[C@H]4CCCC[C@@H]4O)c3n2)cc2c1C(=O)N([C@@H](C)C1CC1)C2 [Example 254] | > 7.00 | 6.00 to 7.00
12 | Cc1cc(-c2ccn3nc(N)c(C(=O)NC4(C#N)CCC4)c3n2)cc2c1C(=O)N([C@@H](C)C1CC1)C2 [Example 255] | > 7.00 | 6.00 to 7.00
13 | Cc1cc(-c2ccn3nc(N)c(C(=O)NCC4(C#N)CC4)c3n2)cc2c1C(=O)N([C@@H](C)C1CC1)C2 [Example 256] | > 7.00 | 6.00 to 7.00
14 | Cc1cc(-c2ccn3nc(N)c(C(=O)NC[C@H]4CCOC4)c3n2)cc2c1C(=O)N([C@@H](C)C1CC1)C2 [Example 257] | > 7.00 | 6.00 to 7.00
15 | Cc1cc(-c2ccn3nc(N)c(C(=O)NC4CC(F)(F)C4)c3n2)cc2c1C(=O)N([C@@H](C)C1CC1)C2 [Example 258] | > 7.00 | 6.00 to 7.00
16 | Cc1cc(-c2ccn3nc(N)c(C(=O)NC4COCc5ccccc54)c3n2)cc2c1C(=O)N([C@@H](C)C1CC1)C2 (stereo partly shown) [Example 259] | > 7.00 | 6.00 to 7.00
17 | Cc1cc(-c2ccn3nc(N)c(C(=O)NCCC#N)c3n2)cc2c1C(=O)N([C@@H](C)C1CC1)C2 [Example 260] | > 7.00 | 6.00 to 7.00
18 | Cc1cc(-c2ccn3nc(N)c(C(=O)N[C@H]4CCOc5ccccc54)c3n2)cc2c1C(=O)N([C@@H](C)C1CC1)C2 [Example 261] | > 7.00 | 6.00 to 7.00
19 | Cc1cc(-c2ccn3nc(N)c(C(=O)NC4(C(F)(F)F)CC4)c3n2)cc2c1C(=O)N([C@@H](C)C1CC1)C2 [Example 262] | > 7.00 | 6.00 to 7.00
20 | Cc1cc(-c2ccn3nc(N)c(C(=O)N[C@@H]4C[C@@H]4F)c3n2)cc2c1C(=O)N([C@@H](C)C1CC1)C2 [Example 263] | > 7.00 | 6.00 to 7.00
21 | Cc1cc(-c2ccn3nc(N)c(C(=O)N[C@H]4CCC[C@H]4O)c3n2)cc2c1C(=O)N([C@@H](C)C1CC1)C2 [Example 264] | > 7.00 | 6.00 to 7.00
22 | Cc1cc(-c2ccn3nc(N)c(C(=O)N[C@H]4Cc5ccccc5[C@@H]4O)c3n2)cc2c1C(=O)N([C@@H](C)C1CC1)C2 [Example 265] | > 7.00 | < 6.00
23 | Cc1cc(-c2ccn3nc(N)c(C(=O)NC4CNC4)c3n2)cc2c1C(=O)N([C@@H](C)C1CC1)C2 [Example 266] | > 7.00 | < 6.00
24 | Cc1cc(-c2ccn3nc(N)c(C(=O)N[C@@H](CO)CC(C)C)c3n2)cc2c1C(=O)N([C@@H](C)C1CC1)C2 [Example 267] | > 7.00 | 6.00 to 7.00
25 | Cc1cc(-c2ccn3nc(N)c(C(=O)NC4(C#N)CC4)c3n2)cc2c1C(=O)N([C@@H](C)C1CC1)C2 [Example 268] | > 7.00 | 6.00 to 7.00
26 | Cc1cc(-c2ccn3nc(N)c(C(=O)NC[C@H]4CCCO4)c3n2)cc2c1C(=O)N([C@@H](C)C1CC1)C2 [Example 269] | > 7.00 | 6.00 to 7.00
27 | Cc1cc(-c2ccn3nc(N)c(C(=O)N4CC(C(C)(C)O)C4)c3n2)cc2c1C(=O)N(C(C)C1CC1)C2 (stereo not shown) [Example 270] | > 7.00 | 6.00 to 7.00

Row | SMILES | pIC50 (PI3Kγ (p120γ)) | pIC50 (PI3Kγ)
28 | Cc1cc(-c2ccn3nc(N)c(C(=O)NC[C@@H]4CCC(=O)N4)c3n2)cc2c1C(=O)N([C@@H](C)C1CC1)C2 [Example 271] | > 7.00 | 6.00 to 7.00
29 | Cc1cc(-c2ccn3nc(N)c(C(=O)N[C@H]4c5ccccc5C[C@@H]4O)c3n2)cc2c1C(=O)N([C@@H](C)C1CC1)C2 [Example 272] | > 7.00 | < 6.00
30 | Cc1cc(-c2ccn3nc(N)c(C(=O)N[C@H]4CC[C@@H](N)CC4)c3n2)cc2c1C(=O)N([C@@H](C)C1CC1)C2 [Example 273] | > 7.00 | 6.00 to 7.00
31 | Cc1cc(-c2ccn3nc(N)c(C(=O)N4CCC4CO)c3n2)cc2c1C(=O)N(C(C)C1CC1)C2 (stereo not shown) [Example 274] | > 7.00 | 6.00 to 7.00
32 | Cc1cc(-c2ccn3nc(N)c(C(=O)N[C@H]4CCCC[C@H]4O)c3n2)cc2c1C(=O)N([C@@H](C)C1CC1)C2 [Example 275] | > 7.00 | 6.00 to 7.00
33 | Cc1cc(-c2ccn3nc(N)c(C(=O)NC[C@H]4CNC(=O)C4)c3n2)cc2c1C(=O)N([C@@H](C)C1CC1)C2 [Example 276] | > 7.00 | 6.00 to 7.00
34 | Cc1cc(-c2ccn3nc(N)c(C(=O)NC4CC45CC5)c3n2)cc2c1C(=O)N([C@@H](C)C1CC1)C2 (stereo partly shown) [Example 277] | > 7.00 | 6.00 to 7.00
35 | Cc1cc(-c2ccn3nc(N)c(C(=O)N[C@H](C)C4CC4)c3n2)cc2c1C(=O)N([C@@H](C)C1CC1)C2 [Example 278] | > 7.00 | < 6.00
36 | Cc1cc(-c2ccn3nc(N)c(C(=O)NCC(=O)Nc4ccccc4)c3n2)cc2c1C(=O)N([C@@H](C)C1CC1)C2 [Example 279] | > 7.00 | < 6.00
37 | Cc1cc(-c2ccn3nc(N)c(C(=O)N4CCOCC4)c3n2)cc2c1C(=O)N(C(C)C1CC1)C2 (stereo not shown) [Example 280] | > 7.00 | < 6.00
38 | Cc1cc(-c2ccn3nc(N)c(C(=O)NC4(c5ccccc5)CC4)c3n2)cc2c1C(=O)N([C@@H](C)C1CC1)C2 [Example 281] | > 7.00 | < 6.00
39 | Cc1cc(-c2ccn3nc(N)c(C(=O)N[C@@H]4CCNC4=O)c3n2)cc2c1C(=O)N([C@@H](C)C1CC1)C2 [Example 283] | > 7.00 | 6.00 to 7.00
40 | Cc1cc(-c2ccn3nc(N)c(C(=O)N[C@H]4c5ccccc5C[C@H]4O)c3n2)cc2c1C(=O)N([C@@H](C)C1CC1)C2 [Example 284] | > 7.00 | < 6.00
41 | Cc1cc(-c2ccn3nc(N)c(C(=O)N[C@@H]4CCOc5ccccc54)c3n2)cc2c1C(=O)N([C@@H](C)C1CC1)C2 [Example 285] | > 7.00 | < 6.00
42 | Cc1cc(-c2ccn3nc(N)c(C(=O)N[C@H](C(N)=O)c4ccccc4)c3n2)cc2c1C(=O)N([C@@H](C)C1CC1)C2 [Example 286] | 6.00 to 7.00 | < 6.00
43 | Cc1cc(-c2ccn3nc(N)c(C(=O)NC(C)C4COC4)c3n2)cc2c1C(=O)N([C@@H](C)C1CC1)C2 (stereo partly shown) [Example 287] | 6.00 to 7.00 | 6.00 to 7.00
44 | Cc1cc(-c2ccn3nc(N)c(C(=O)N4CCCC4CO)c3n2)cc2c1C(=O)N(C(C)C1CC1)C2 (stereo not shown) [Example 288] | 6.00 to 7.00 | < 6.00
45 | Cc1cc(-c2ccn3nc(N)c(C(=O)N4CCCC4CO)c3n2)cc2c1C(=O)N(C(C)C1CC1)C2 (stereo not shown) [Example 289] | 6.00 to 7.00 | < 6.00
46 | Cc1cc(-c2ccn3nc(N)c(C(=O)N[C@@H](C)C4CCNCC4)c3n2)cc2c1C(=O)N([C@@H](C)C1CC1)C2 [Example 290] | 6.00 to 7.00 | < 6.00
47 | Cc1cc(-c2ccn3nc(N)c(C(=O)N4CCN(C)CC4)c3n2)cc2c1C(=O)N(C(C)C1CC1)C2 (stereo not shown) [Example 291] | < 6.00 | < 6.00
48 | Cc1cc(-c2ccn3nc(N)c(C(=O)Nc4cn(C)nc4C)c3n2)cc2c1C(=O)N([C@@H](C)C1CC1)C2 [Example 292] | > 7.00 | 6.00 to 7.00
49 | Cc1cc(NC(=O)c2c(N)nn3ccc(-c4cc(C)c5c(c4)CN([C@@H](C)C4CC4)C5=O)nc23)ccc1C(=O)O [Example 293] | > 7.00 | 6.00 to 7.00
50 | Cc1cc(-c2ccn3nc(N)c(C(=O)Nc4cnn(C5CC5)c4)c3n2)cc2c1C(=O)N([C@@H](C)C1CC1)C2 [Example 294] | > 7.00 | 6.00 to 7.00
51 | CCn1cc(NC(=O)c2c(N)nn3ccc(-c4cc(C)c5c(c4)CN([C@@H](C)C4CC4)C5=O)nc23)cn1 [Example 295] | > 7.00 | 6.00 to 7.00
52 | Cc1cc(-c2ccn3nc(N)c(C(=O)Nc4cnn(C)c4F)c3n2)cc2c1C(=O)N([C@@H](C)C1CC1)C2 [Example 296] | > 7.00 | 6.00 to 7.00
53 | Cc1cc(NC(=O)c2c(N)nn3ccc(-c4cc(C)c5c(c4)CN([C@@H](C)C4CC4)C5=O)nc23)ccn1 [Example 297] | > 7.00 | 6.00 to 7.00
